{"source": "patent EP1982595A1", "about": "“Insecticidal derivatives of substituted aminoheterocycles” (Bayer CropScience AG, priority 2007, dated 2008)", "key": {"[1]": {"assay": "logP (acidic) / lgP (HCOOH), phys. data", "format": "physicochemical", "conditions": "for logP: acidic; for lgP (HCOOH): preparation examples, b176 prints logP (HCOOH)"}, "[2]": {"tested_on": "Myzus persicae", "assay": "Myzus persicae - test (spray application)", "format": "in vivo", "conditions": "read-out: activity (mortality in %)", "protocol": "Myzus persicae - test; (spray application)\n(§1) To produce a suitable preparation of active compound, 1 part by weight of active compound is mixed with the stated amount of solvent and emulsifier, and the concentrate is diluted with emulsifier-containing water to the desired concentration.\nChinese cabbage (Brassica pekinesis) leaf-disks infected with all instars of the green peach aphid (Myzus persicae), are sprayed with a preparation of the active ingredient at the desired concentration.\nAfter the specified period of time, mortality in % is determined, 100% means that all aphids have been killed; 0% means that none of the aphids have been killed, […]"}, "[3]": {"tested_on": "Phaedon cochleariae", "assay": "Phaedon cochleariae - test (spray application)", "format": "in vivo", "conditions": "application rate of 500 g/ha, Chinese cabbage leaf-disks, mustard beetle larvae", "protocol": "Phaedon cochlearlae - test (spray application)\nTo produce a suitable preparation of active compound, I part by weight of active compound is mixed with the stated amount of solvent and emulsifier, and the concentrate is diluted with emulsifier-containing water to the desired concentration.\nChinese cabbage (Brassica pekinesis) leaf-disks are treated by being sprayed with the preparation of the active compound of the desired concentration and are, after drying, infested with mustard beetle larvae (Phaedon cochleariae).\nAfter the specified period of time, mortality in % is determined, 100 % means that all the beetle larvae have been killed; 0 % means that none of the beetle larvae have been killed."}, "[4]": {"tested_on": "Tetranychus urticae", "assay": "Tetranychus urticae - test; OP-resistant (spray application)", "format": "in vivo", "conditions": "application rate of 100 g/ha, French bean, all stages", "protocol": "Tetranychus urticae - test; OP-resistant (spray application)\nas §1\nFrench bean (Phaseolus vulgaris) which are heavily infested with all stages of the two spotted spidermite (Tetranychus urticae), are sprayed with a preparation of the active ingredient at the desired concentration.\nAfter the specified period of time, mortality in % is determined, 100% means that all spider mites have been killed and 0% means that none of the spider mites have been killed."}, "[5]": {"conditions": "Table I-1, read-out: Phys. data = logP (acidic)"}, "[6]": {"conditions": "application rate of 500 g/ha, spray application, Chinese cabbage leaf-disks, all instars of the green peach aphid"}}, "note": "Where two headings read alike, the source gives them in different places.", "data": [{"smiles": "S=C(NCc1ccc2c(c1)OCO2)N1CCOC1=N[C@H]1CCc2ccccc21", "note": "[1-22]", "values": [{"measurement": "logP", "setting": "[1]; [5]", "value": 4.11}, {"measurement": "mortality at 500 g/ha", "setting": "[2]; [6]", "value": "≥ 80", "unit": "%"}, {"measurement": "mortality at 500 g/ha", "setting": "[3]", "value": "≥ 80", "unit": "%"}]}, {"smiles": "S=C(NCc1ccncc1)N1CCOC1=N[C@H]1CCc2ccccc21", "note": "[1-43]", "values": [{"measurement": "logP", "setting": "[1]; [5]", "value": 1.87}]}, {"smiles": "Fc1ccc(CNC(=S)N2CCOC2=N[C@H]2CCc3ccccc32)cc1", "note": "[1-24]", "values": [{"measurement": "logP", "setting": "[1]; [5]", "value": 4.51}, {"measurement": "mortality at 500 g/ha", "setting": "[2]; [6]", "value": "≥ 80", "unit": "%"}]}, {"smiles": "S=C(NCc1ccc(Cl)cc1)N1CCOC1=N[C@H]1CCc2ccccc21", "note": "[1-19]", "values": [{"measurement": "logP", "setting": "[1]; [5]", "value": 5.02}, {"measurement": "mortality at 500 g/ha", "setting": "[2]; [6]", "value": "≥ 80", "unit": "%"}]}, {"smiles": "C=CCNC(=S)N1CCOC1=NC1CCc2ccccc21", "note": "(centres unmarked) [1-47]", "values": [{"measurement": "logP", "setting": "[1]; [5]", "value": 3.85}, {"measurement": "mortality at 500 g/ha", "setting": "[2]; [6]", "value": "≥ 80", "unit": "%"}]}, {"smiles": "COc1ccc(CNC(=S)N2CCOC2=N[C@H]2CCc3ccccc32)cc1OC", "note": "[1-26]", "values": [{"measurement": "logP", "setting": "[1]; [5]", "value": 3.8}, {"measurement": "mortality at 500 g/ha", "setting": "[2]; [6]", "value": "≥ 80", "unit": "%"}]}, {"smiles": "S=C(NCc1ccco1)N1CCOC1=N[C@H]1CCc2ccccc21", "note": "[1-45]", "values": [{"measurement": "logP", "setting": "[1]; [5]", "value": 4.17}]}, {"smiles": "CC(NC(=S)N1CCSC1=NC1CCc2c(F)cccc21)c1ccccc1", "note": "(centres unmarked) [2-31, 2-[aza(4-fluorindanyl)-methylene](1,3-thiazolidine-3-yl)(alphamethylbenzylamino)methane-1-thione]", "values": [{"measurement": "Phys. data", "setting": "[1]; Table I-2, key logP (acidic) is printed only in the head of Table I-1", "value": 5.47}, {"measurement": "logP", "setting": "[1]; preparation example 3, text, read-out: logP (acidic)", "value": 5.47}]}, {"smiles": "CC(C)=CCNC(=S)N1CCOC1=N[C@H]1CCc2ccccc21", "note": "[1-72]", "values": [{"measurement": "logP", "setting": "[1]; [5]", "value": 4.78}]}, {"smiles": "S=C(NCc1ccccc1)N1CCOC1=NC1CCc2ccccc21", "note": "(centres unmarked) [1-1]", "values": [{"measurement": "logP", "setting": "[1]; [5]", "value": 4.46}, {"measurement": "mortality at 500 g/ha", "setting": "[2]; [6]", "value": "≥ 80", "unit": "%"}]}, {"smiles": "S=C(NCc1ccccc1)N1CCOC1=N[C@H]1CCc2ccccc21", "note": "[1-2, N-benzyl-2-[(1S)-2,3-dihydro-1H-inden-1-ylimino]-1,3-oxazolidiner3-carbothioamide]", "values": [{"measurement": "logP", "setting": "[1]; [5]", "value": 4.46}, {"measurement": "lgP (HCOOH)", "setting": "[1]", "value": 4.46}, {"measurement": "mortality at 500 g/ha", "setting": "[2]; [6]", "value": "≥ 80", "unit": "%"}, {"measurement": "mortality at 100 g/ha", "setting": "[4]", "value": "≥ 80", "unit": "%"}]}, {"smiles": "Cc1ccc(CNC(=S)N2CCOC2=N[C@H]2CCc3ccccc32)cc1", "note": "[1-23]", "values": [{"measurement": "logP", "setting": "[1]; [5]", "value": 4.91}, {"measurement": "mortality at 500 g/ha", "setting": "[2]; [6]", "value": "≥ 80", "unit": "%"}]}, {"smiles": "CC(NC(=S)N1CCOC1=N[C@H]1CCc2ccccc21)c1ccccc1", "note": "(some centres unmarked) [1-29]", "values": [{"measurement": "logP", "setting": "[1]; [5]", "value": 4.85}]}, {"smiles": "S=C(NCc1ccc(Cl)nc1)N1CCOC1=N[C@H]1CCc2ccccc21", "note": "[1-40]", "values": [{"measurement": "logP", "setting": "[1]; [5]", "value": 4.04}]}, {"smiles": "CC(NC(=S)N1CCOC1=N[C@H]1CCc2ccccc21)c1cccc(Cl)c1", "note": "(some centres unmarked) [1-35]", "values": [{"measurement": "logP", "setting": "[1]; [5]", "value": 5.31}, {"measurement": "mortality at 500 g/ha", "setting": "[2]; [6]", "value": "≥ 80", "unit": "%"}, {"measurement": "mortality at 500 g/ha", "setting": "[3]", "value": "≥ 80", "unit": "%"}]}, {"smiles": "CC(NC(=S)N1CCOC1=N[C@H]1CCc2ccccc21)c1ccccc1Cl", "note": "(some centres unmarked) [1-32]", "values": [{"measurement": "logP", "setting": "[1]; [5]", "value": 5.31}, {"measurement": "mortality at 500 g/ha", "setting": "[2]; [6]", "value": "≥ 80", "unit": "%"}]}, {"smiles": "S=C(NCCc1ccc(Cl)cc1)N1CCOC1=N[C@H]1CCc2ccccc21", "note": "[1-38]", "values": [{"measurement": "logP", "setting": "[1]; [5]", "value": 5.25}, {"measurement": "mortality at 500 g/ha", "setting": "[2]; [6]", "value": "≥ 80", "unit": "%"}]}, {"smiles": "CC(NC(=S)N1CCOC1=N[C@H]1CCc2ccccc21)c1ccc(Cl)cc1", "note": "(some centres unmarked) [1-34]", "values": [{"measurement": "logP", "setting": "[1]; [5]", "value": 5.64}, {"measurement": "mortality at 500 g/ha", "setting": "[2]; [6]", "value": "≥ 80", "unit": "%"}]}, {"smiles": "COc1ccc(CNC(=S)N2CCOC2=N[C@H]2CCc3ccccc32)cc1", "note": "[1-25]", "values": [{"measurement": "logP", "setting": "[1]; [5]", "value": 4.28}, {"measurement": "mortality at 500 g/ha", "setting": "[2]; [6]", "value": "≥ 80", "unit": "%"}]}, {"smiles": "S=C(NCc1cccc(Cl)c1)N1CCOC1=N[C@H]1CCc2ccccc21", "note": "[1-20]", "values": [{"measurement": "logP", "setting": "[1]; [5]", "value": 4.97}, {"measurement": "mortality at 500 g/ha", "setting": "[2]; [6]", "value": "≥ 80", "unit": "%"}]}, {"smiles": "S=C(NCc1ncccn1)N1CCOC1=N[C@H]1CCc2ccccc21", "note": "[1-71]", "values": [{"measurement": "logP", "setting": "[1]; [5]", "value": 2.92}]}, {"smiles": "CC(NC(=S)N1CCOC1=NC1CCc2ccccc21)c1ccc(F)cc1", "note": "(centres unmarked) [1-36]", "values": [{"measurement": "logP", "setting": "[1]; [5]", "value": 4.91}, {"measurement": "mortality at 500 g/ha", "setting": "[2]; [6]", "value": "≥ 80", "unit": "%"}]}, {"smiles": "C=CCNC(=O)N1CCOC1=NC1CCc2ccccc21", "note": "(centres unmarked) [1-48]", "values": [{"measurement": "logP", "setting": "[1]; [5]", "value": 3.85}]}, {"smiles": "S=C(NCCc1cccc(Cl)c1)N1CCOC1=N[C@H]1CCc2ccccc21", "note": "[1-39]", "values": [{"measurement": "logP", "setting": "[1]; [5]", "value": 5.19}, {"measurement": "mortality at 500 g/ha", "setting": "[2]; [6]", "value": "≥ 80", "unit": "%"}, {"measurement": "mortality at 500 g/ha", "setting": "[3]", "value": "≥ 80", "unit": "%"}]}, {"smiles": "S=C(NCc1cccnc1)N1CCOC1=N[C@H]1CCc2ccccc21", "note": "[1-44]", "values": [{"measurement": "logP", "setting": "[1]; [5]", "value": 2.17}, {"measurement": "mortality at 500 g/ha", "setting": "[2]; [6]", "value": "≥ 80", "unit": "%"}]}, {"smiles": "S=C(NCc1ccccc1Cl)N1CCOC1=N[C@H]1CCc2ccccc21", "note": "[1-21]", "values": [{"measurement": "logP", "setting": "[1]; [5]", "value": 4.97}, {"measurement": "mortality at 500 g/ha", "setting": "[2]; [6]", "value": "≥ 80", "unit": "%"}]}, {"smiles": "S=C(NCc1ccccc1)N1CCOC1=N[C@H]1CCCc2ccccc21", "note": "[3-2, N-benzyl-2-[(1S)-1,2,3,4-tetrahydronaphthaline-1-ylimino]-1,3-oxazolidine-3-carbothioamide]", "values": [{"measurement": "Phys. data", "setting": "[1]; Table I-3, logP (HCOOH), i.e. acidic conditions", "value": 4.67}, {"measurement": "lgP (HCOOH)", "setting": "[1]", "value": 4.67}, {"measurement": "mortality at 500 g/ha", "setting": "[2]; in Brassica rapa", "value": "≥ 80", "unit": "%"}]}, {"smiles": "S=C(NCc1ccc(Cl)cc1Cl)N1CCOC1=N[C@H]1CCc2ccccc21", "note": "[1-27]", "values": [{"measurement": "logP", "setting": "[1]; [5]", "value": 5.65}, {"measurement": "mortality at 500 g/ha", "setting": "[2]; [6]", "value": "≥ 80", "unit": "%"}, {"measurement": "mortality at 500 g/ha", "setting": "[3]", "value": "≥ 80", "unit": "%"}]}]}
